The text below walks through data of patent US9255100B2 (BAYER INTELLECTUAL PROPERTY GMBH, priority 2010, dated 2016).

Several values for one entry are separate records, joined by “and”; a condition that tells them apart may be missing. Equal entries are not always repeated.

The target in this experiment is T1, N-terminally GST-tagged human full length recombinant Mps-1 kinase (Homo sapiens, UniProt P33981).
T1 construct: N-terminally GST-tagged human full length recombinant Mps-1 kinase; purchased Invitrogen, Karslruhe, Germany PV4071
T1 sequence (P33981 1-857): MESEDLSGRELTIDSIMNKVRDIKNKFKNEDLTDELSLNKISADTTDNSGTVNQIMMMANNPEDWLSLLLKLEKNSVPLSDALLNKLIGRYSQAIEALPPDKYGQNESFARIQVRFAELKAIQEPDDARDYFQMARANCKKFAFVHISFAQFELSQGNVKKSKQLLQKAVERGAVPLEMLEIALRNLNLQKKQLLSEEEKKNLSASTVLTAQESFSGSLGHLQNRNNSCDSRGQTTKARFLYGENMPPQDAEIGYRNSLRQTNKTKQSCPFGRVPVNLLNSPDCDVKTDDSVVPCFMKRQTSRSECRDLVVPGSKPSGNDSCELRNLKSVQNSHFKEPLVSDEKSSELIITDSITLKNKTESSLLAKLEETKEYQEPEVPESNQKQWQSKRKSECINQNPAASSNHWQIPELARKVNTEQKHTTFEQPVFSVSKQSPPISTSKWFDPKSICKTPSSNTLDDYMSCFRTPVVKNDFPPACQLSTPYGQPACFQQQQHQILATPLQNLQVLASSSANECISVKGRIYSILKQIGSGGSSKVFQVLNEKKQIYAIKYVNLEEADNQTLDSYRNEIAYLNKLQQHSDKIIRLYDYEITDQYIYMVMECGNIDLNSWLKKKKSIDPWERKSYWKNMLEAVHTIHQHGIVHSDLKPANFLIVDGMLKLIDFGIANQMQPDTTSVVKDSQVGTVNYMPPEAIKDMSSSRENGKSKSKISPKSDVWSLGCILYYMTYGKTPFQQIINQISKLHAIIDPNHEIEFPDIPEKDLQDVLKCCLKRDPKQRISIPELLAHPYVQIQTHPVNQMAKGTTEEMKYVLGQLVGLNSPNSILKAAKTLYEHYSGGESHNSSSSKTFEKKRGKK
The experiment in a line: Mps-1 kinase assay (TR-FRET). The experiment is classed as biochemical. The conditions noted are these: Mps1 IC50 [nM], 10 μM ATP, 1 μM peptide substrate, 60 min at 22° C. The gist of the method: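 TR-FRET signal between a Europium anti-phospho-Ser/Thr antibody and streptavidin-XLent reported phosphorylation of a biotinylated peptide by GST-tagged full-length Mps-1. Enzyme was near 1 nM final, chosen per lot for linearity.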
For orientation: In TR-FRET formats the signal depends on donor and acceptor labels being close together.
Usually IC50 stands for the concentration that gives 50% inhibition. Turning to `Cc1cc(-c2cnc3c(NC[C@@H]4CCCO4)cc(-c4ccnn4C)nn23)ccc1C(=O)NC1CC1` [Example 34, N-cyclopropyl-2-methyl-4-[6-(1-methyl-1H-pyrazol-5-yl)-8-{[(2S)-tetrahydrofuran-2-ylmethyl]amino}imidazo[1,2-b]pyridazin-3-yl]benzamide], the IC50 amounted to 2.4 nM.
On to `Cc1cc(-c2cnc3c(NCCC(F)(F)F)cc(Oc4cccc(F)c4)nn23)ccc1C(=O)NCC(F)F` [Example 556, N-(2,2-difluoroethyl)-4-{6-(3-fluorophenoxy)-8-[(3,3,3-trifluoropropyl)amino]imidazo[1,2-b]pyridazin-3-yl}-2-methylbenzamide], for which the IC50 was 0.3 nM.
The result for `Cc1cc(-c2cnc3c(NCC(C)(C)O)cc(Sc4ccccn4)nn23)ccc1C(=O)NC1CC1` [Example 334, N-cyclopropyl-4-{8-[(2-hydroxy-2-methylpropyl)amino]-6-(pyridin-2-yl-sulfanyl)imidazo[1,2-b]pyridazin-3-yl}-2-methyl-benzamide] reads 30 nM; that for `Cc1cc(-c2cnc3c(NCCC(F)(F)F)cc(Sc4cc(F)ccc4F)nn23)ccc1C(=O)NC1CC1` [Example 255, N-cyclopropyl-4-{6-[(2,5-difluorophenyl)sulfanyl]-8-[(3,3,3-trifluoropropyl)amino]imidazo[1,2-b]pyridazin-3-yl}-2-methylbenzamide], 0.2 nM.
The result for `Cc1cc(-c2cnc3c(NCC(C)(C)O)cc(Oc4ccccc4F)nn23)ccc1C(=O)NC1CC1` [Example 93, N-cyclopropyl-4-{6-(2-fluorophenoxy)-8-[(2-hydroxy-2-methylpropyl)amino]imidazo[1,2-b]pyridazin-3-yl}-2-methylbenzamide] reads 0.3 nM; that for `Cc1cc(-c2cnc3c(NCCC(F)(F)F)cc(O/C=C(/F)C(F)(F)CO)nn23)ccc1C(=O)NC1CC1` [Example 278B, N-cyclopropyl-2-methyl-4-(6-{[(1E)-2,3,3-trifluoro-4-hydroxybut-1-en-1-yl]oxy}-8-[(3,3,3-trifluoropropyl)amino]imidazo[1,2-b]pyridazin-3-yl)benzamide], 1 nM.
With `Cc1cc(-c2cnc3c(NCCC(F)(F)F)cc(Nc4ccc(F)cc4O)nn23)ccc1C(=O)NC1CC1` [Example 396, N-cyclopropyl-4-{6-[(4-fluoro-2-hydroxyphenyl)amino]-8-[(3,3,3-trifluoropropyl)amino]imidazo[1,2-b]pyridazin-3-yl}-2-methylbenzamide] the figure was 0.1 nM and 0.3 nM; with `Fc1ccc(-c2cc(NCCC(F)(F)F)c3ncc(-c4ccc(-c5cnc(C6CC6)[nH]5)cc4)n3n2)cc1` [Example 6, 3-[4-(2-Cyclopropyl-1H-imidazol-5-yl)phenyl]-6-(4-fluorophenyl)-N-(3,3,3-trifluoropropyl)imidazo[1,2-b]pyridazin-8-amine], 43.6 nM.
Take `Cc1ccc(F)cc1Sc1cc(NCC(C)(C)O)c2ncc(-c3ccc(C(=O)NC4CC4)c(C)c3)n2n1` [Example 64, N-cyclopropyl-4-{6-[(5-fluoro-2-methylphenyl)sulfanyl]-8-[(2-hydroxy-2-methylpropyl)amino]imidazo[1,2-b]pyridazin-3-yl}-2-methylbenzamide]: the half-maximal inhibitory concentration (IC50) is 0.1 nM.
With `Cc1cc(-c2cnc3c(NCC(C)(C)O)cc(Oc4ccc(Cl)c(F)c4)nn23)ccc1C(=O)NC1CC1` [Example 95, 4-{6-(4-Chloro-3-fluorophenoxy)-8-[(2-hydroxy-2-methylpropyl)amino]imidazo[1,2-b]pyridazin-3-yl}-N-cyclopropyl-2-methylbenzamide] the figure was 0.3 nM; with `Cc1cc(-c2cnc3c(NCC(C)(C)O)cc(SC4CCCCC4)nn23)ccc1C(=O)NC1CC1` [Example 172, 4-{6-(cyclohexylsulfanyl)-8-[(2-hydroxy-2-methylpropyl)amino]imidazo[1,2-b]pyridazin-3-yl}-N-cyclopropyl-2-methylbenzamide], 0.8 nM.
Regarding `Cc1cc(-c2cnc3c(NCCC(F)(F)F)cc(Oc4ccccc4)nn23)ccc1C(=O)NC1CC1` [Example 77, N-cyclopropyl-2-methyl-4-{6-phenoxy-8-[(3,3,3-trifluoropropyl)amino]imidazo[1,2-b]pyridazin-3-yl}benzamide], the IC50 is less than 0.7 nM.
With `CNC(=O)c1ccc(-c2cnc3c(NCC4CCOCC4)cc(Oc4ccc(OC)cc4)nn23)cc1C` [Example 570, 4-{6-(4-methoxyphenoxy)-8-[(tetrahydro-2H-pyran-4-ylmethyl)amino]imidazo[1,2-b]pyridazin-3-yl}-N,2-dimethylbenzamide] the figure was less than 1 nM.
With `Cc1cc(F)cc(Oc2cc(NCCCC(F)(F)F)c3ncc(-c4ccc(C(=O)NC5CC5)c(C)c4)n3n2)c1` [Example 452, N-cyclopropyl-4-{6-(3-fluoro-5-methylphenoxy)-8-[(4,4,4-trifluorobutyl)amino]imidazo[1,2-b]pyridazin-3-yl}-2-methylbenzamide] the figure was 0.8 nM.
Turning to `Cc1cc(-c2cnc3c(NCC(C)C)cc(S(=O)(=O)c4ccccc4)nn23)ccc1C(=O)NC1CC1` [Example 198, N-cyclopropyl-2-methyl-4-{8-[(2-methylpropyl)amino]-6-(phenylsulfonyl)imidazo[1,2-b]pyridazin-3-yl}benzamide], the half-maximal inhibitory concentration (IC50) stood at 2.6 nM.
Take `CC(C)CNc1cc(-c2ccc3nccn3c2)nn2c(-c3ccc(C(=O)NC4CC4)cc3)cnc12` [Example 145, N-cyclopropyl-4-{6-(imidazo[1,2-a]pyridin-6-yl)-8-[(2-methylpropyl)amino]imidazo[1,2-b]pyridazin-3-yl}benzamide]: the half-maximal inhibitory concentration (IC50) was less than 1 nM.
With `CNC(=O)c1ccc(-c2cnc3c(NCCN4CCOCC4)cc(Oc4ccccc4C)nn23)cc1C` [Example 563, N,2-dimethyl-4-[6-(2-methylphenoxy)-8-{[2-(morpholin-4-yl)ethyl]amino}imidazo[1,2-b]pyridazin-3-yl]benzamide] the figure was 4.3 nM.
The result for `Cc1cc(-c2cnc3c(NCC4(CO)COC4)cc(Oc4cccc(F)c4)nn23)ccc1C(=O)NC1CC1` [Example 490, N-cyclopropyl-4-[6-(3-fluoro-phenoxy)-8-({[3-(hydroxymethyl)oxetan-3-yl]methyl}amino)imidazo[1,2-b]pyridazin-3-yl]-2-methylbenzamide] reads 1.5 nM; that for `Cc1cc(-c2cnc3c(NCC(C)(C)O)cc(Oc4ccc(F)c(Cl)c4)nn23)ccc1C(=O)NC1CC1` [Example 91, 4-{6-(3-Chloro-4-fluorophenoxy)-8-[(2-hydroxy-2-methylpropyl)amino]imidazo[1,2-b]pyridazin-3-yl}-N-cyclopropyl-2-methylbenzamide], 0.5 nM; that for `Cc1cc(-c2cnc3c(NCC(C)(C)O)cc(Oc4ccc(F)cc4)nn23)ccc1C(=O)NC1CC1` [Example 253, N-cyclopropyl-4-{6-(4-fluorophenoxy)-8-[(2-hydroxy-2-methylpropyl)amino]imidazo[1,2-b]pyridazin-3-yl}-2-methylbenzamide], 0.3 nM.
With `Cc1cc(-c2cnc3c(NCC(C)(C)O)cc(Oc4cccc5ncccc45)nn23)ccc1C(=O)NC1CC1` [Example 167, N-cyclopropyl-4-{8-[(2-hydroxy-2-methylpropyl)amino]-6-(quinolin-5-yloxy)imidazo[1,2-b]pyridazin-3-yl}-2-methylbenzamide], the IC50 was 2.3 nM.
As to `Cc1cc(-c2cnc3c(NCCC(F)(F)F)cc(Sc4ccc(C(F)(F)F)cc4)nn23)ccc1C(=O)NC1CC1` [Example 247, N-cyclopropyl-2-methyl-4-(6-{[4-(trifluoromethyl)phenyl]sulfanyl}-8-[(3,3,3-trifluoropropyl)amino]imidazo[1,2-b]pyridazin-3-yl)benzamide], the concentration for half-maximal inhibition (IC50) worked out at 1.7 nM.
For the compound `Cc1cc(-c2cnc3c(NCCC(C)CO)cc(-c4ccccc4CO)nn23)ccc1C(=O)NC1CC1` (racemic) [Example 343, (RS)-N-cyclopropyl-4-{8-[(4-hydroxy-3-methylbutyl)amino]-6-[2-(hydroxymethyl)phenyl]imidazo [1,2-b]pyridazin-3-yl}-2-methyl-benzamide], the IC50 was determined as 4.3 nM.
The result for `Cc1cc(F)ccc1Sc1cc(NCC(C)(C)O)c2ncc(-c3ccc(C(=O)NC4CC4)c(C)c3)n2n1` [Example 69, N-cyclopropyl-4-{6-[(4-fluoro-2-methylphenyl)sulfanyl]-8-[(2-hydroxy-2-methylpropyl)amino]imidazo[1,2-b]pyridazin-3-yl}-2-methylbenzamide] reads 1 nM; that for `CNc1cc(Oc2cc(F)ccc2C)nn2c(-c3ccc(C(=O)NC4CC4)c(C)c3)cnc12` [Example 530, N-cyclopropyl-4-[6-(5-fluoro-2-methylphenoxy)-8-(methylamino)imidazo [1,2-b]pyridazin-3-yl]-2-methylbenzamide], 0.6 nM.
